Patent US20250340561A1, “QUINAZOLINE COMPOUND FOR INDUCING DEGRADATION OF G12D MUTANT KRAS PROTEIN” (Astellas Pharma Inc., priority 2021, published 2025)
Counter-ions that a name gives are not always drawn.

Target: T1, KRAS G12D (Homo sapiens, UniProt P01116, G12D)
T1 construct: host or cells: AsPC-1 human pancreatic cancer cells
Experiment: Test Example 1-1: KRAS degradation action in AsPC-1, sandwich ELISA
Type: cell-based
Conditions: AsPC-1 cells, 24 hours treatment, corrected with β-actin, 0% = 10 μM Example No. 7
Experimental: Test Example 1-1: Evaluation of KRAS Degradation Action on Human G12D Mutant KRAS-Positive Pancreatic Cancer Line AsPC-1
The KRAS degradation action of test compounds was evaluated by measuring the expression levels of KRAS G12D by a sandwich ELISA method.
AsPC-1 cells (ATCC, CRL-1682) were seeded at 90 μL per well on a 96-well plate (from IWAKI) to give 1.8×10^4 cells per well. As for the cell culture conditions, RPMI 1640 medium (from Merck) containing 10% fetal bovine serum (from Cytiva) was used in the presence of 5% CO2 at 37° C.
The next day, the test compounds (10 points having final concentrations in the range of 10 μM to 0.3 nM) were diluted 100-fold with a fresh medium and were added at 10 μL per well. The same treatments were each applied to 4 wells. In addition, in production of the sandwich ELISA plate, a capture antibody (anti-KRAS antibody, from LS Bio) mixed in Phosphate Buffered Saline [PBS; from FUJIFILM Wako Pure Chemical Corporation] in 1,000-fold dilution was added at 20 μL per well to a Maxisorp 384-well plate (from Thermo Scientific), and after attaching a seal, the plate was allowed to stand at 4° C. overnight.
After 24 hours of the test compound treatment, the culture supernatant was discarded. Immediately, a cytolytic solution (produced by adding, to a RIPA buffer [from Thermo Scientific], a Halt Protease Phosphatese Inhibitor Cocktail [from Thermo Scientific] and Benzonase Nuclease [from Merck] in amounts of 1/100 and 1/500, respectively) was added at 50 μL per well, and the cells were lysed. Then, equally treated 4 wells were combined to prepare a cell lysate sample of 200 μL in total. For KRAS detection, the Maxisorp 384-well plate which had been treated with the capture antibody since the previous day was washed (twice with 25 μL each) with 0.05% Tween-20-containing PBS (from Thermo Scientific; 20×PBS Tween-20 was diluted 20-fold with ion exchange water and used) and was treated with a blocking solution (Intercept Blocking Buffer; from LI-COR Biosciences) for 60 minutes, and then, the cell lysate samples were added at 20 μL per well. For 3-actin detection, the cell lysate samples were added as they were at 20 μL per well to the Maxisorp 384-well plate, and after attaching a seal, the plate was allowed to stand at 4° C. overnight.
The next day, after washing the KRAS detection plate with 0.05% Tween-20-containing PBS, an anti-Ras (G12D mutant specific) antibody (from Cell Signaling Technology) diluted 1,000-fold with a blocking solution was added at 20 μL per well as a detection antibody, and the plate was allowed to stand for 5 hours at room temperature. Then, the plate was centrifuged to remove the supernatant (using a centrifugal dehydrator machine, the supernatant was removed by the same method hereinafter) and was washed with 0.05% Tween-20-containing PBS. Then, an anti-Rabbit IgG […] antibody (from Cell Signaling Technology) diluted 1,000-fold with a blocking solution was added at 20 μL per well as a secondary antibody, and the plate was allowed to stand for 1 hour at room temperature. The plate was centrifuged to remove the supernatant and was washed with 0.05% Tween-20-containing PBS. Then, a BM chemiluminescent ELISA substrate (from Merck) was added at 20 μL per well, and the amounts of luminescence were measured with 2103 EnVision (from PerkinElmer). In addition, the 3-actin detection plate was washed with 0.05% Tween-20-containing PBS and was treated with a blocking solution for 60 minutes, and then, an anti-β-actin antibody (from Abcam) diluted 1,000-fold with a blocking solution was added at 20 μL per well as a detection antibody. The plate was allowed to stand for 5 hours at room temperature. Then, the plate was centrifuged to remove the supernatant and washed with 0.05% Tween-20-containing PBS, and then, an anti-Mouse IgG RP-linked antibody (from Cell Signaling Technology) diluted 1,000-fold with a blocking solution was added at 20 μL per well as a secondary antibody. […]

T1 sequence (P01116 1-188 isoform P01116-2 G12D): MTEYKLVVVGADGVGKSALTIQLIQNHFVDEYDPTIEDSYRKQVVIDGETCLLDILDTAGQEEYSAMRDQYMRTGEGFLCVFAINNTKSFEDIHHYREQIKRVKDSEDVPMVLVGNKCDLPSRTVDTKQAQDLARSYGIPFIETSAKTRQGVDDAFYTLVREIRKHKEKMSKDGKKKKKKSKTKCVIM

SMILES	DC50
Cc1c(F)cc2[nH]ncc2c1-c1c(C2CC2)cc2c(N3C[C@@H]4C[C@H]3CN4)nc(OC3CCOCC3)nc2c1OCc1ccc(-c2cn([C@H](C(=O)N3C[C@H](O)C[C@H]3C(=O)N[C@@H](CO)c3ccccc3)C(C)C)nn2)cc1 (atropisomer, axis not shown) [Example 14]	221 nM
Cc1ncsc1-c1ccc([C@H](CO)NC(=O)[C@@H]2C[C@@H](O)CN2C(=O)C(C(C)C)n2cc(-c3ccc(COc4c(-c5c(C)c(F)cc6[nH]ncc56)c(C5CC5)cc5c(N6C[C@@H]7C[C@H]6CN7)nc(OC6CCOCC6)nc45)cc3)cn2)cc1 (single isomer, unassigned) [Example 11]	178 nM
Cc1ncsc1-c1ccc(C2(NC(=O)[C@@H]3C[C@@H](O)CN3C(=O)[C@@H](NC(=O)c3ccc(COc4c(-c5c(C)c(F)cc6[nH]ncc56)c(C5CC5)cc5c(N6C[C@@H]7C[C@H]6CN7)nc(OC6CCOCC6)nc45)cc3)C(C)C)CC2)cc1 [Example 1]	123 nM
Cc1ncsc1-c1ccc(C2(NC(=O)[C@@H]3C[C@@H](O)CN3C(=O)[C@@H](NC(=O)c3ccc(COc4c(-c5c(C)c(F)cc6[nH]ncc56)c(C5CC5)cc5c(N6C[C@@H]7C[C@H]6CN7)nc(OC6CCOCC6)nc45)cn3)C(C)C)CC2)cc1 [Example 2]	598 nM
Cc1ncsc1-c1ccc([C@H](CO)NC(=O)[C@@H]2C[C@@H](O)CN2C(=O)[C@@H](NC(=O)c2ccc(COc3c(-c4c(C)c(F)cc5[nH]ncc45)c(C4CC4)cc4c(N5C[C@@H]6C[C@H]5CN6)nc(OC5CCOCC5)nc34)cc2)C(C)C)cc1 [Example 3]	140 nM
Cc1ncsc1-c1ccc([C@H](CO)NC(=O)[C@@H]2C[C@@H](O)CN2C(=O)[C@H](C(C)C)N2Cc3cc(COc4c(-c5c(C)c(F)cc6[nH]ncc56)c(C5CC5)cc5c(N6C[C@@H]7C[C@H]6CN7)nc(OC6CCOCC6)nc45)ccc3C2=O)cc1 [Example 4]	897 nM
CCOc1nc(N2C[C@@H]3C[C@H]2CN3)c2cc(C3CC3)c(-c3c(C)c(F)cc4[nH]ncc34)c(OCc3ccc(C(=O)N[C@H](C(=O)N4C[C@H](O)C[C@H]4C(=O)N[C@@H](CO)c4ccc(-c5scnc5C)cc4)C(C)C)cc3)c2n1 [Example 5]	153 nM
Cc1ncsc1-c1ccc(C2(NC(=O)[C@@H]3C[C@@H](O)CN3C(=O)[C@H](C(C)C)n3cc(-c4ccc(COc5c(-c6c(C)c(F)cc7[nH]ncc67)c(C6CC6)cc6c(N7C[C@@H]8C[C@H]7CN8)nc(OC7CCOCC7)nc56)cc4)nn3)CC2)cc1 [Example 6]	103 nM
Cc1ncsc1-c1ccc([C@H](CO)NC(=O)[C@@H]2C[C@@H](O)CN2C(=O)[C@H](C(C)C)n2cc(-c3ccc(COc4c(-c5c(C)c(F)cc6[nH]ncc56)c(C5CC5)cc5c(N6C[C@@H]7C[C@H]6CN7)nc(OC6CCOCC6)nc45)cc3)nn2)cc1 [Example 8, (4R)-1-[(2S)-2-(4-{4-[({6-cyclopropyl-4-[(1S,4S)-2,5-diazabicyclo[2.2.1]heptan-2-yl]-7-(6-fluoro-5-methyl-1H-indazol-4-yl)-2-[(oxan-4-yl)oxy]quinazolin-8-yl}oxy)methyl]phenyl}-1H-1,2,3-triazol-1-yl)-3-methylbutanoyl]-4-hydroxy-N-{(1R)-2-hydroxy-1-[4-(4-methyl-1,3-thiazol-5-yl)phenyl]ethyl}-L-prolinamide]	37 nM
Cc1ncsc1-c1ccc([C@H](C)NC(=O)[C@@H]2C[C@@H](O)CN2C(=O)[C@H](C(C)C)n2cc(-c3ccc(COc4c(-c5c(C)c(F)cc6[nH]ncc56)c(C5CC5)cc5c(N6C[C@@H]7C[C@H]6CN7)nc(OC6CCOCC6)nc45)cc3)nn2)cc1 [Example 9]	77 nM
Cc1ncsc1-c1ccc(CNC(=O)[C@@H]2C[C@@H](O)CN2C(=O)[C@H](C(C)C)n2cc(-c3ccc(COc4c(-c5c(C)c(F)cc6[nH]ncc56)c(C5CC5)cc5c(N6C[C@@H]7C[C@H]6CN7)nc(OC6CCOCC6)nc45)cc3)nn2)cc1 [Example 10]	124 nM
Cc1c(F)cc2[nH]ncc2c1-c1c(C2CC2)cc2c(N3C[C@@H]4C[C@H]3CN4)nc(OC3CCOCC3)nc2c1OCc1ccc(-c2cn([C@H](C(=O)N3C[C@H](O)C[C@H]3C(=O)N[C@@H](CO)c3ccc(Br)cc3)C(C)C)nn2)cc1 [Example 12]	136 nM
Cc1c(F)cc2[nH]ncc2c1-c1c(C2CC2)cc2c(N3C[C@@H]4C[C@H]3CN4)nc(OC3CCOCC3)nc2c1OCc1ccc(-c2cn([C@H](C(=O)N3C[C@H](O)C[C@H]3C(=O)N[C@@H](CO)c3ccc(F)cc3)C(C)C)nn2)cc1 [Example 13]	151 nM
Cc1ncsc1-c1ccc([C@H](CO)NC(=O)[C@@H]2C[C@@H](O)CN2C(=O)[C@H](C(C)C)n2cc(-c3ccc(COc4c(-c5cc(O)cc(F)c5C)c(C5CC5)cc5c(N6C[C@@H]7C[C@H]6CN7)nc(OC6CCOCC6)nc45)cc3)nn2)cc1 [Example 15]	95 nM
Cc1ncsc1-c1ccc([C@@H](NC(=O)[C@@H]2C[C@@H](O)CN2C(=O)[C@H](C(C)C)n2cc(-c3ccc(COc4c(-c5c(C)c(F)cc6[nH]ncc56)c(C5CC5)cc5c(N6C[C@@H]7C[C@H]6CN7)nc(OC6CCOCC6)nc45)cc3)nn2)C(F)F)cc1 [Example 16]	188 nM
Cc1ncsc1-c1ccc([C@H](CF)NC(=O)[C@@H]2C[C@@H](O)CN2C(=O)[C@H](C(C)C)n2cc(-c3ccc(COc4c(-c5c(C)c(F)cc6[nH]ncc56)c(C5CC5)cc5c(N6C[C@@H]7C[C@H]6CN7)nc(OC6CCOCC6)nc45)cc3)nn2)cc1 [Example 17]	92 nM
Cc1c(F)cc2[nH]ncc2c1-c1c(C2CC2)cc2c(N3C[C@@H]4C[C@H]3CN4)nc(OC3CCOCC3)nc2c1OCc1ccc(-c2cn([C@H](C(=O)N3C[C@H](O)C[C@H]3C(=O)N[C@@H](CO)c3ccc(-c4scnc4CO)cc3)C(C)C)nn2)cc1 [Example 18, (4R)-1-[(2S)-2-(4-{4-[({6-cyclopropyl-4-[(1S,4S)-2,5-diazabicyclo[2.2.1]heptan-2-yl]-7-(6-fluoro-5-methyl-1H-indazol-4-yl)-2-[(oxan-4-yl)oxy]quinazolin-8-yl}oxy)methyl]phenyl}-1H-1,2,3-triazol-1-yl)-3-methylbutanoyl]-4-hydroxy-N-[(1R)-2-hydroxy-1-{4-[4-(hydroxymethyl)-1,3-thiazol-5-yl]phenyl}ethyl]-L-prolinamide n hydrochloride]	74 nM
Cc1ncsc1-c1ccc([C@H](CN(C)C)NC(=O)[C@@H]2C[C@@H](O)CN2C(=O)[C@H](C(C)C)n2cc(-c3ccc(COc4c(-c5c(C)c(F)cc6[nH]ncc56)c(C5CC5)cc5c(N6C[C@@H]7C[C@H]6CN7)nc(OC6CCOCC6)nc45)cc3)nn2)cc1 [Example 19]	139 nM

Same assay, conditions: AsPC-1 cells, 24 hours treatment, corrected with β-actin, 0% = 10 μM Example No. 7, hydrochloride

DC50	SMILES
46 nM	Cc1ncsc1-c1ccc([C@H](CO)NC(=O)[C@@H]2C[C@@H](O)CN2C(=O)[C@H](C(C)C)n2cc(-c3ccc(COc4c(-c5c(C)c(F)cc6[nH]ncc56)c(C5CC5)cc5c(N6C[C@@H]7C[C@H]6CN7)nc(OC6CCOCC6)nc45)cc3)nn2)cc1 [Example 7, (4R)-1-[(2S)-2-(4-{4-[({6-cyclopropyl-4-[(1S,4S)-2,5-diazabicyclo[2.2.1]heptan-2-yl]-7-(6-fluoro-5-methyl-1H-indazol-4-yl)-2-[(oxan-4-yl)oxy]quinazolin-8-yl}oxy)methyl]phenyl}-1H-1,2,3-triazol-1-yl)-3-methylbutanoyl]-4-hydroxy-N-{(1R)-2-hydroxy-1-[4-(4-methyl-1,3-thiazol-5-yl)phenyl]ethyl}-L-prolinamide n hydrochloride]
